Patent US20160184248A1, “COMPOSITIONS AND METHODS OF USE OF -HYDROXY-METHYLBUTYRATE (HMB) RESULTING IN AN ACUTE ENDOCRINE RESPONSE” (University of Central Florida Research Foundation Inc., priority 2014, published 2016)

How the values were obtained:
[1] = system: insulin; assay: Serum insulin response to the exercise protocol after HMB ingestion; format: in vivo, human; settings: acute ingestion and training session
Description: (§1) Twenty resistance trained men (22.3±2.4 y, 1.8±0.1 m, […]) volunteered to participate in this study. Participants were randomly separated into one of two groups: ingestion of HMB free-acid (HMB-FA; n=10) or ingestion of placebo (PL; n=10). Following an explanation of all procedures, risks, and benefits, each participant gave his informed consent prior to participation in this study. The Institutional Review Board for the protection of human subjects of the University of Central Florida approved the research protocol. For inclusion in this study, participants were required to have a minimum of one year of resistance training experience, particularly in the squat exercise. Participants were not permitted to use any additional nutritional supplements or medications while enrolled in this study. Screening for nutritional and hormonal supplements was accomplished via a health history questionnaire completed during participant recruitment.
(§2) The investigation utilized a placebo-controlled, double-blind, randomized design. Participants reported to the laboratory on two occasions. […] Total training volume, calculated as repetitions×load, was recorded for further analysis. […]
(§3) Prior to analysis, all data were assessed to ensure normal distribution, homogeneity of variance, and sphericity. […]

[2] = system: testosterone; assay: Plasma testosterone after HMB-FA ingestion and resistance exercise; format: in vivo, human; settings: acute ingestion and training session
Description: as §1, §2, §3

[3] = after HMB is fed; cited from earlier work
[4] = healthy young or old adults; cited from earlier work
[5] = system: muscle proteolysis; settings: isolated rat muscle, in vitro; cited from earlier work
[6] = system: insulin; settings: HMB treated rats, prolonged supplementation; cited from earlier work
[7] = Plasma HMB by gas chromatography-mass spectrometry after HMB-FA ingestion and resistance exercise; format: in vivo, human; settings: 1 g HMB-FA 30 min prior to exercise, p<0.01
Description: as §1, with “Participants were not permitted to use any additional nutritional supplements or medications while enrolled in this study. Screening for nutritional and hormonal supplements was accomplished via a health history questionnaire completed during participant recruitment.” left out
The investigation utilized a placebo-controlled, double-blind, randomized design. […] Total training volume, calculated as repetitions×load, was recorded for further analysis. […]
Plasma HMB was analyzed by Metabolic Technologies Inc. by gas chromatography-mass spectrometry with previously outlined methods to confirm HMB appearance in the plasma (17). Myoglobin concentration was determined via a Myoglobin ELISA kit (Calbiotec, Cat no: MG017C, Spring Valley, Calif., USA) and prepared per manufacturer's instructions. Determination of serum immunoreactivity values was determined using a BioTek Eon spectrophotometer (BioTek, Winooski, Vt., USA). […]

[8] = system: growth hormone; assay: Growth hormone response to resistance exercise after HMB-FA ingestion (commercial kit); format: in vivo, human
Description: as §1
The investigation utilized a placebo-controlled, double-blind, randomized design. Participants reported to the laboratory on two occasions. On the first visit (T1), participants were tested for their one-repetition maximum (1-RM) on the barbell back squat, dead lift, and barbell split squat exercises. Participants were instructed to refrain from any form of exercise for a minimum of 72 hours prior to the resistance training bout (T2). On T2, participants completed an intense lower-body resistance exercise session, which consisted of four sets of the barbell back squat, dead lift, and barbell split squat exercises. The barbell back squat exercise was performed with 80% of the participant's 1-RM and the dead lift and barbell split squat exercises were performed with 70% of the participant's 1-RM. Rest intervals were set at 90 s between each set and between exercises. […] Total training volume, calculated as repetitions×load, was recorded for further analysis. […]
as §3

[9] = system: insulin-like growth factor (IGF-1); assay: Plasma IGF-1 response to resistance exercise after HMB-FA ingestion (commercial kit); format: in vivo, human
Description: as §1
The investigation utilized a placebo-controlled, double-blind, randomized design. Participants reported to the laboratory on two occasions. On the first visit (T1), participants were tested for their one-repetition maximum (1-RM) on the barbell back squat, dead lift, and barbell split squat exercises. Participants were instructed to refrain from any form of exercise for a minimum of 72 hours prior to the resistance training bout (T2). On T2, participants completed an intense lower-body resistance exercise session, which consisted of four sets of the barbell back squat, dead lift, and barbell split squat exercises. The barbell back squat exercise was performed with 80% of the participant's 1-RM and the dead lift and barbell split squat exercises were performed with 70% of the participant's 1-RM. Rest intervals were set at 90 s between each set and between exercises. Participants were encouraged to perform as many repetitions as possible up to 10 repetitions for each set. Total training volume, calculated as repetitions×load, was recorded for further analysis.
The HMB-FA supplement consisted of one gram of β-hydroxy-β-methylbutyrate in the free-acid form (Beta-TOR®, Metabolic Technologies Inc., Ames, Iowa), reverse osmosis water, de-bittering agent, flavor, stevia extract, and potassium carbonate. Each serving of placebo contained one gram of polydextrose and was identical to the HMB-FA supplement in appearance and taste. The HMB-FA and PL treatments were produced and supplied by Metabolic Technologies Inc. (Ames, Iowa). One serving of HMB-FA or PL was consumed 30 minutes prior to the exercise session. All HMB-FA and PL ingestion took place in the Human Performance Lab and was witnessed by one of the investigators. […]
as §3

[10] = in vivo; cited from earlier work
[11] = system: muscle damage; settings: initiated 30 min prior to an acute bout of exercise; cited from earlier work
[12] = AUC over PRE, IP, 30P, trapezoidal, p=0.02

SMILES | Effect on the insulin response to the exercise protocol [1] | Circulating testosterone levels [2] | Loss of HMB to urine [3] | Side effects [4] | Inhibition of muscle proteolysis [5] | Resting insulin concentrations [6] | Plasma HMB concentrations ([7]; 30 min post-exercise (30P)) | Plasma HMB concentrations ([7]; immediately post-exercise (IP)) | Growth hormone concentration, elevation vs PL ([8]; 30P, p=0.100) | Growth hormone AUC vs PL [8, 12] | Growth hormone concentration, elevation vs PL ([8]; IP, 1 g HMB-FA 30 min prior to exercise, p=0.021) | IGF-1 concentration vs PL ([9]; 30P) | IGF-1 AUC vs PL [9, 12] | IGF-1 concentration vs PL ([9]; IP) | IGF-1 concentration vs PL ([9]; PRE (baseline), supplement given 15 min before the PRE blood draw, p=0.012) | Absorption compared with CaHMB [10] | Tissue clearance compared with CaHMB [10] | Attenuating muscle damage and ameliorating inflammatory response compared with CaHMB [11]
CC(C)(O)CC(=O)O [HMB, β-hydroxy-β-methylbutyrate] | unable to demonstrate any effect | no differences | 20-50% | no side effects | potent inhibitor of muscle proteolysis | significant increases |  |  |  |  |  |  |  |  |  |  |  | 
CC(C)(O)CC(=O)O [HMB-FA, β-hydroxy-β-methylbutyric acid] |  |  |  |  |  |  | significantly elevated | significantly elevated | no difference between the groups | significantly higher GH response | significantly higher than PL | No differences were observed between the groups | greater IGF-1 response | No differences were observed between the groups | elevated at baseline | absorbed quicker | greater tissue clearance | more efficacious
